Non-standard residues stand in square brackets, D forms with d. *: point of attachment. Biotin = O=C1N[C@H]2[C@H](CS[C@H]2CCCCC(=O)*)N1; Hyp = O=C(O)[C@@H]1C[C@@H](O)CN1
Experiments:
[1] = target: T1, pVHL-elongin B-elongin C (VBC) complex (Homo sapiens, UniProt P40337+Q15369+Q15370); experiment: Steady-state ELISA of VBC complex binding to immobilized biotinylated HIF-2α peptides; conditions: peptides (523–541) on streptavidin plate; VBC 1, 5 and 25 μg/mL; anti-elongin B antibody; three independent experiments in duplicate
T1 construct: a construct encoding N-terminal GST-tagged pVHL19 (54–213); GST (N, cleaved yes); made in house; host or cells: BL21(DE3) E. coli
T1 sequence (P40337 54-213): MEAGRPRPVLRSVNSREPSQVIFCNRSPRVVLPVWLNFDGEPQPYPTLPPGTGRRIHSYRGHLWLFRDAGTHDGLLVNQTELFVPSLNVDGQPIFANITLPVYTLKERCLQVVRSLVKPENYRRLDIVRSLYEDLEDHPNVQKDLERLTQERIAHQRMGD
T1 sequence (Q15370 whole entry partner): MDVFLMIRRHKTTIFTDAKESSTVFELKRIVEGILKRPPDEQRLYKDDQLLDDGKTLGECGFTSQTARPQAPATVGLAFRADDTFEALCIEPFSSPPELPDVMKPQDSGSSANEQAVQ
T1 sequence (Q15369 17-112 partner limits assumed): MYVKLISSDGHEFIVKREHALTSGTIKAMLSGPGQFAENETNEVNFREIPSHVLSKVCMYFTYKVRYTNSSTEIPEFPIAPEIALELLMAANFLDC
Method: (§1) Fig. 4 Affinity of HIF-2α mutants for pVHL is correlated with disease phenotype. a Biotinylated HIF-2α peptides (523–541) were immobilized on a streptavidin-coated 96-well plate. Binding to various concentrations of pVHL-elongin B-elongin C (VBC) complex was assayed via ELISA with an anti-eloB antibody. Absorbance was read at 450 nm. Values represent mean of three independent experiments performed in duplicate ± SEM. *p < 0.05; **p < 0.01. b Biotinylated HIF-2αOH peptides (523–541) were immobilized on streptavidin- agarose beads and incubated with in vitro transcribed and translated (IVTT) pVHL. Streptavidin beads were pulled down (PD) and levels of HA-tagged pVHL were visualized via immmunoblotting (IB). c, d Biolayer interferometry kinetic analysis of VBC complex binding to biotinylated HIF-2α peptides (523–541). c Biotinylated peptides were coupled to streptavidin- coated biosensors and monitored for binding to VBC complex at the indicated concentrations. The data were analyzed based on a 1:1 binding model using the BLItz Pro software with the fitted curves shown as gray lines. […]
A 96-well streptavidin-coated plate (Quidel) was hydrated with ~200 μL of buffer A per well. […] Following the final wash step, the plates were developed according to manufacturer’s recommendations with ready-to-use TMB1 reagent (Thermo-fisher, Cat. No. 34028) for 20 min before being quenched with 2 N H2SO4. […]

[2] = target: T1, pVHL-elongin B-elongin C (VBC) complex; experiment: Biolayer interferometry kinetic analysis of VBC complex binding to biotinylated HIF-2α peptides; conditions: BLItz biolayer interferometry, peptide (523–541) immobilized, purified VBC, global 1:1 model; mean of three experiments ± SEM
Method: Absorbance was read at 450 nm. […] The data were analyzed based on a 1:1 binding model using the BLItz Pro software with the fitted curves shown as gray lines. […] Values represent mean of three experiments conducted with independently purified protein ± SEM. * denotes uncharacterized band
Multiple concentrations of purified VBC complex were diluted in kinetics buffer and allowed to associate with immobilized peptide over 120 s. Subsequently, the SA-BLI probe was immersed into kinetics buffer for 120 s to allow for dissociation. The data were analyzed, step corrected, reference corrected, and fit to a global 1:1 binding model. Kd, ka, and kd were calculated using the BLItz Pro software.

pVHL = experiment: In vitro pVHL-HIF-2α binding assay (streptavidin pull-down with IVTT HA-VHL30); conditions: synthetically hydroxylated biotinylated peptides on streptavidin-agarose, IVTT HA-VHL30, 2 h at 4 °C, stringent and mild buffer
Method: as §1
The in vitro pVHL-HIF-2α binding assay was performed according to a previously published protocol. […] Protein levels of HA-VHL30 were determined by western blotting. […]

Compound	binding to VBC by ELISA (absorbance at 450 nm, in words) [1]	ka (association rate) [2]	binding of IVTT pVHL in pull-down (immunoblot, in words) (pVHL)
CC[C@H](C)[C@H](NC(=O)[C@H](Cc1ccc(O)cc1)NC(=O)[C@@H]1C[C@@H](O)CN1C(=O)[C@H](C)NC(=O)[C@@H]1CCCN1C(=O)[C@@H](NC(=O)[C@H](CCC(=O)O)NC(=O)[C@H](CC(C)C)NC(=O)[C@H](CC(=O)O)NC(=O)[C@H](CC(C)C)NC(=O)[C@H](CCC(=O)O)NC(=O)CCCC[C@@H]1SC[C@@H]2NC(=O)N[C@@H]21)[C@@H](C)O)C(=O)N1CCC[C@H]1C(=O)N[C@@H](CCSC)C(=O)N[C@@H](CC(=O)O)C(=O)NCC(=O)N[C@@H](CCC(=O)O)C(=O)N[C@@H](CC(=O)O)C(=O)N[C@@H](Cc1ccccc1)C(=O)N[C@@H](CCC(N)=O)C(N)=O [HIF-2αOH (L529P)]	does not have a statistically significant effect	4.0 ± 0.4 x10^4 Ms^−1	
HIF-2αOH L542 peptide: synthetically P531-hydroxylated HIF-2α peptide (523–542), presumably carrying L542P (Biotin-ELDLETLA[Hyp]YIPMDGEDFQP-NH2; SMILES CC[C@H](C)[C@H](NC(=O)[C@H](Cc1ccc(O)cc1)NC(=O)[C@@H]1C[C@@H](O)CN1C(=O)[C@H](C)NC(=O)[C@H](CC(C)C)NC(=O)[C@@H](NC(=O)[C@H](CCC(=O)O)NC(=O)[C@H](CC(C)C)NC(=O)[C@H](CC(=O)O)NC(=O)[C@H](CC(C)C)NC(=O)[C@H](CCC(=O)O)NC(=O)CCCC[C@@H]1SC[C@@H]2NC(=O)N[C@@H]21)[C@@H](C)O)C(=O)N1CCC[C@H]1C(=O)N[C@@H](CCSC)C(=O)N[C@@H](CC(=O)O)C(=O)NCC(=O)N[C@@H](CCC(=O)O)C(=O)N[C@@H](CC(=O)O)C(=O)N[C@@H](Cc1ccccc1)C(=O)N[C@@H](CCC(N)=O)C(=O)N1CCC[C@H]1C(N)=O)			rescued binding to pVHL
